The source of these data is patent publication US20190209539A1, “THIOHYDANTOIN ANDROGEN RECEPTOR ANTAGONISTS FOR THE TREATMENT OF CANCER” (Janssen Pharmaceutica NV, priority 2016, published 2019).

Positions count from the first letter of the chain named.

In assay [1] the target is T1, wild-type Androgen Receptor (AR-wt) (Homo sapiens, UniProt P10275).
T1 construct: expressed in transfected cells; host or cells: LNCaP AR (cs) cells with ARE firefly luciferase lentiviral construct
T1 sequence (P10275 1-920): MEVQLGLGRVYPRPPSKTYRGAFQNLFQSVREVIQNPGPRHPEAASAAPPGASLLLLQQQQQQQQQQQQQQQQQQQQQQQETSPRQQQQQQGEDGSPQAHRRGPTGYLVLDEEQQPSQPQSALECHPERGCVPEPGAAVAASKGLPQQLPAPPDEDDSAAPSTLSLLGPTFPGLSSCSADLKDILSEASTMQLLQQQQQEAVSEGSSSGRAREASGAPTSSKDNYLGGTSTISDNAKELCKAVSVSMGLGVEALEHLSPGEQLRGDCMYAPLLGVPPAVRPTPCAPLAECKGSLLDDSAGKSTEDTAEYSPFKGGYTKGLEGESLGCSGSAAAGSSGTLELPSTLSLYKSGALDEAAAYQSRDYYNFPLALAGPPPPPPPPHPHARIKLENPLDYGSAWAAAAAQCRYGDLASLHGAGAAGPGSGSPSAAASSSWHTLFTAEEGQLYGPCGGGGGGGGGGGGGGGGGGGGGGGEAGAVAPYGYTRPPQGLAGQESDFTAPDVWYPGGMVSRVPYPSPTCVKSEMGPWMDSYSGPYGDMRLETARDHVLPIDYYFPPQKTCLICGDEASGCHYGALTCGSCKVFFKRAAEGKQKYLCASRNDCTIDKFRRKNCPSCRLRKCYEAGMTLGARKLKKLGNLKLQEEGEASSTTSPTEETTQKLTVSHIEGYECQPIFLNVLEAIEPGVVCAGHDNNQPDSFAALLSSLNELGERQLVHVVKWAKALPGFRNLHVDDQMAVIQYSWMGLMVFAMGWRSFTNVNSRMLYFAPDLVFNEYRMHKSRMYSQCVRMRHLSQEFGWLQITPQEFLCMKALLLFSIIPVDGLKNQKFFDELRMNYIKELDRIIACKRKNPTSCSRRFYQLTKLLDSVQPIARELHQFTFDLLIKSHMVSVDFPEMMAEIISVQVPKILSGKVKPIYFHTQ
As to the kind of experiment: LNCaP-AR-wt AG: ARE luciferase reporter assay, agonist mode. The assay is classed as cell-based. Particulars: maximum % stimulation (agonist response), % of 1 μM R-1881 max. As to the method: (§1) A stable pooled-population cell line was generated using puromycin (Life Technologies) selection at 1:10,000 v/v. The protocol below was used for both cell lines and for testing of the compounds of Formula (I) of the present invention.
(§2) LNCaP cells were grown to about 80% confluence, media removed and cells rinsed in Hank's balanced salt solution prior to separation from the plate with 0.05% Trypsin EDTA. Cells were lifted and trypsin negated in complete CSS (charcoal stripped serum) culture media. […] Agonist challenge was at 400 pM for WT assay and 600 pM for F876L assay. Plates containing cells and compounds herein were incubated for a further 20-24 hours at 37° C., 5% CO2 before addition of 40 μL/well of Steady-Glo Luciferase Assay System Reagent (Promega# E2520). After 1 h, plates were read for luminescence on a BMG Pherastar.
(§3) EC/IC50 calculations were achieved utilizing calculated RLU data and data fitting macros. Data were fit using least-squares methods to the following formula: […]
(§4) As used herein: pIC50 is defined as—Log10(IC50 expressed in [Molar]). pEC50 is defined as—Log10(EC50 expressed in [Molar]). […] LNCaP-AR-wt ANT refers to the reporter assay using LNCaP cells stably transfected with the Androgen Response Element Firefly Luciferase lentiviral construct and wild-type Androgen Receptor (AR-wt) in Antagonist mode. LNCaP-AR-wt AG refers to the reporter assay using LNCaP cells stably transfected with the Androgen Response Element Firefly Luciferase lentiviral construct and wild-type Androgen Receptor (AR-wt) in Agonist mode. LNCaP-AR-F876L ANT refers to the reporter assay using LNCaP cells stably transfected with the Androgen Response Element Firefly Luciferase lentiviral construct and F876L mutant Androgen Receptor (AR-F876L) in Antagonist mode. LNCaP-AR-F876L AG refers to the reporter assay using LNCaP cells stably transfected with the Androgen Response Element Firefly Luciferase lentiviral construct and F876L mutant Androgen Receptor (AR-F876L) in Agonist mode.
(Reporter assays use an easily measured gene product as a stand-in for the process of interest.)

Assay [2] addresses T2, F876L mutant Androgen Receptor (AR-F876L) (Homo sapiens, UniProt P10275, F877L).
T2 construct: expressed in transfected cells; host or cells: LNCaP F876L cells with ARE firefly luciferase lentiviral construct
T2 sequence (P10275 1-920 F877L): T1 sequence (P10275 1-920) with F877L
Nature of the assay: LNCaP-AR-F876L AG: ARE luciferase reporter assay, agonist mode. The assay is classed as cell-based. Particulars: maximum % stimulation (agonist response), % of 1 μM R-1881 max. As to the method: as §1, §2, §3, §4

On to `Cc1cc(N2C(=O)C3(CCC3)N(c3ccc(C(=O)NC4CCOCC4)c(F)c3)C2=S)cnc1C#N` [Cpd 2, 4-[6-(6-cyano-5-methyl-3-pyridyl)-5-oxo-7-thioxo-6,8-diazaspiro[3.4]octan-8-yl]-2-fluoro-N-tetrahydropyran-4-yl-benzamide], for which the “LNCaP-AR-wt AG MAX % Stim” value in assay [1] is 0.8%. Moreover, in assay [2], the “LNCaP-AR-F876L AG MAX % Stim” value is −0.4%.
For `N#Cc1ncc(N2C(=O)C3(CCC3)N(c3ccc4ccncc4c3)C2=S)cc1C(F)(F)F` [Cpd 7, 5-[8-(7-isoquinolyl)-5-oxo-7-thioxo-6,8-diazaspiro[3.4]octan-6-yl]-3-(trifluoromethyl)pyridine-2-carbonitrile], in that order: −0.2% and 0.0%.
With `N#Cc1ncc(N2C(=O)C3(CCC3)N(c3cccnc3)C2=S)cc1C(F)(F)F` [Cpd 9, 5-[5-oxo-8-(3-pyridyl)-7-thioxo-6,8-diazaspiro[3.4]octan-6-yl]-3-(trifluoromethyl)pyridine-2-carbonitrile], the “LNCaP-AR-wt AG MAX % Stim” value in assay [1] is −0.2%. The “LNCaP-AR-F876L AG MAX % Stim” value in assay [2] is on record as 0.0%.
On the same counts, the results for `CNC(=O)c1ccc(N2C(=S)N(c3cnc(C#N)c(C)c3)C(=O)C2(C)C)cc1F` [Cpd 12, 4-[3-(6-cyano-5-methyl-3-pyridyl)-5,5-dimethyl-4-oxo-2-thioxo-imidazolidin-1-yl]-2-fluoro-N-methyl-benzamide] are 0.9% and −0.3%.
Consider `CC(C)(O)CNC(=O)c1ccc(N2C(=S)N(c3cnc(C#N)c(C(F)(F)F)c3)C(=O)C23CCC3)cc1F` [Cpd 17, 4-[6-[6-cyano-5-(trifluoromethyl)-3-pyridyl]-5-oxo-7-thioxo-6,8-diazaspiro[3.4]octan-8-yl]-2-fluoro-N-(2-hydroxy-2-methyl-propyl)benzamide], for which, in assay [1], the “LNCaP-AR-wt AG MAX % Stim” value is listed as −0.1%. Moreover, in assay [2], the “LNCaP-AR-F876L AG MAX % Stim” value is recorded as 0.1%.
For `N#Cc1ncc(N2C(=O)C3(CCC3)N(c3ccc4ccccc4c3)C2=S)cc1C(F)(F)F` [Cpd 18, 5-[8-(2-naphthyl)-5-oxo-7-thioxo-6,8-diazaspiro[3.4]octan-6-yl]-3-(trifluoromethyl)pyridine-2-carbonitrile], in that order: −0.2% and 0.0%.
In the case of `CC(C)CCNC(=O)c1ccc(N2C(=S)N(c3cnc(C#N)c(C(F)(F)F)c3)C(=O)C23CCC3)cc1F` [Cpd 27, 4-[6-[6-cyano-5-(trifluoromethyl)-3-pyridyl]-5-oxo-7-thioxo-6,8-diazaspiro[3.4]octan-8-yl]-2-fluoro-N-isopentyl-benzamide], the “LNCaP-AR-wt AG MAX % Stim” value in assay [1] is on record as 0.4%. Moreover, the “LNCaP-AR-F876L AG MAX % Stim” value in assay [2] came to 0.2%.
With `CN1CCC(Oc2ccc(N3C(=S)N(c4cnc(C#N)c(C(F)(F)F)c4)C(=O)C34CCC4)cc2F)CC1` [Cpd 28, 5-[8-[3-fluoro-4-[(1-methyl-4-piperidyl)oxy]phenyl]-5-oxo-7-thioxo-6,8-diazaspiro[3.4]octan-6-yl]-3-(trifluoromethyl)pyridine-2-carbonitrile], the “LNCaP-AR-wt AG MAX % Stim” value in assay [1] is −0.1%. For the same compound, the “LNCaP-AR-F876L AG MAX % Stim” value in assay [2] was 0.0%.
For `N#Cc1ncc(N2C(=O)C3(CCC3)N(c3ccc(C(=O)NCc4ccccc4Cl)c(F)c3)C2=S)cc1C(F)(F)F` [Cpd 31, N-[(2-chlorophenyl)methyl]-4-[6-[6-cyano-5-(trifluoromethyl)-3-pyridyl]-5-oxo-7-thioxo-6,8-diazaspiro[3.4]octan-8-yl]-2-fluoro-benzamide], in that order: 0.2% and 0.3%.
For `N#Cc1ncc(N2C(=O)C3(CCC3)N(c3cccc4ccccc34)C2=S)cc1C(F)(F)F` [Cpd 34, 5-[8-(1-naphthyl)-5-oxo-7-thioxo-6,8-diazaspiro[3.4]octan-6-yl]-3-(trifluoromethyl)pyridine-2-carbonitrile], in that order: −0.1% and 0.2%.
Consider `N#Cc1ncc(N2C(=O)C3(CCC3)N(c3ccc(C(=O)NCc4ccccc4)c(F)c3)C2=S)cc1C(F)(F)F` [Cpd 36, N-benzyl-4-[6-[6-cyano-5-(trifluoromethyl)-3-pyridyl]-5-oxo-7-thioxo-6,8-diazaspiro[3.4]octan-8-yl]-2-fluoro-benzamide], for which the “LNCaP-AR-wt AG MAX % Stim” value in assay [1] came to 0.9%. For the same compound, the “LNCaP-AR-F876L AG MAX % Stim” value in assay [2] is 0.3%.
With `N#Cc1ncc(N2C(=O)C3(CCC3)N(c3ccc(C(=O)NCc4ccccn4)c(F)c3)C2=S)cc1C(F)(F)F` [Cpd 44, 4-[6-[6-cyano-5-(trifluoromethyl)-3-pyridyl]-5-oxo-7-thioxo-6,8-diazaspiro[3.4]octan-8-yl]-2-fluoro-N-(2-pyridylmethyl)benzamide], the “LNCaP-AR-wt AG MAX % Stim” value in assay [1] is on record as −0.2%. The “LNCaP-AR-F876L AG MAX % Stim” value in assay [2] is listed as 0.0%.
Consider `COCCNC(=O)c1ccc(N2C(=S)N(c3cnc(C#N)c(C(F)(F)F)c3)C(=O)C23CCC3)cc1F` [Cpd 46, 4-[6-[6-cyano-5-(trifluoromethyl)-3-pyridyl]-5-oxo-7-thioxo-6,8-diazaspiro[3.4]octan-8-yl]-2-fluoro-N-(2-methoxyethyl)benzamide], for which the “LNCaP-AR-wt AG MAX % Stim” value in assay [1] is reported as −0.1%. For the same compound, the “LNCaP-AR-F876L AG MAX % Stim” value in assay [2] is 0.2%.
For `N#Cc1ncc(N2C(=O)C3(CCC3)N(c3ccc(OC4CCN(CCO)CC4)cc3)C2=S)cc1C(F)(F)F` [Cpd 51, 5-[8-[4-[[1-(2-hydroxyethyl)-4-piperidyl]oxy]phenyl]-5-oxo-7-thioxo-6,8-diazaspiro[3.4]octan-6-yl]-3-(trifluoromethyl)pyridine-2-carbonitrile], in that order: 0.8% and 0.2%.
